Assay results from US20060173171A1, “Techniques and compositions for diagnosis and treatment of cancer (muci)” (priority 2003, published 2006).

Tested on: ligands in breast tumor cell lysates
Experiment: Ligand fishing from cell lysates with PSMGFR peptide on NTA-Ni beads, silver-stained gel
Format: binding, human
Procedure: In an effort to identify ligands to the MUC1 receptor, synthetic, His-var-PSMGFR peptides, […] (SEQ ID NO: 2), which is representative of the portion of the MUC1 receptor, that remains attached to the cell surface after cleavage of the interchain binding region, were loaded onto NTA-Ni beads (cat. #1000630; available from Qiagen GmbH, Germany) and incubated with cell lysates in the presence (FIG. 9) or absence (FIG. 10) of the protease inhibitor PMSF (phenyl methyl sulfonyl fluoride). Lysates from T47D cells were used because this breast tumor cell line is known to overexpress MUC1 and MUC1 ligand(s). T47D cells were cultured then sonicated for 1 minute to lyse the cells. Lysates were mixed with the PSMGFR peptide-presenting beads and incubated on ice with intermittent mixing for 1 hr. As a negative control, an irrelevant peptide, HHHHHHGEFTGTYITAVT (SEQ ID NO: 13), was attached to NTA-Ni beads and treated identically. Both sets of beads were washed 2× with phosphate buffer pH 7.4. Bound protein species were eluted by 3 additions of 100 uL of phosphate buffer that also contained 250 mM imidazole. For both the peptides, a portion of the first elution was removed and reserved to run as a separate sample, while the remainder was combined with the other 2 elutions and concentrated by TCA (tri-chloro acetic acid)-precipitation (Chen, L. et al., Anal. Biochem. Vol 269; pgs 179-188; 1999). […]

GTINVHDVETQFNQYKTEAASPYNLTISDVSVSDVPFPFSAQSGAHHHHHH [PSMGFR peptide]
protein species bound from T47D lysate (in the absence of PMSF, FIG. 10): bound distinguishably to one peptide
protein species bound from T47D lysate (in the presence of PMSF, FIG. 9): bound distinguishably to three peptides
